Here are results for 17 molecules from PubChem BioAssay (NCI).

Several values for one entry are separate records, joined by “and”; a condition that tells them apart may be missing. Equal entries are not always repeated.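 Values below derive from 48-hour exposures of cells grown in 96-well plates, with endpoints linearly interpolated between the two concentrations bracketing the appropriate inhibition level. GI50 = concentration required for 50% inhibition of growth. Definition used: TGI = concentration required for complete inhibition of growth.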

Common to all, as to experiment: growth of human tumour cells (NCI), 48 h
In experiment [1] the test system is SF-268 CNS.
In experiment [2] the test system is EKVX NSCLC.
The test system of experiment [3] is HCC-2998 colon.
Experiment [4] concerns OVCAR-5 ovarian.
Experiment [5] deals with SR leukemia.
Experiment [6] has as its system SF-539 CNS.
Experiment [7] has as its system SK-MEL-28 melanoma.
In experiment [8] the test system is IGROV1 ovarian.
The subject of experiment [9] is 786-0 renal.
Experiment [10] relates to SK-MEL-5 melanoma.

Take `c1ccc(Oc2ccc(Nc3ncc(-c4ccccc4)o3)cc2)cc1`: the GI50 in [1], in experiment [2], in [3], in experiment [4], in experiment [5] and in experiment [6] was > 25 µM each time. The GI50 in experiment [7], in [8], in experiment [9] and in [10] was > 25 µM each time. Further, the TGI in experiment [1], in experiment [2], in experiment [3], in [4], in experiment [5] and in experiment [6] was > 25 µM in each case. The TGI in [7], in [8], in experiment [9] and in experiment [10] was > 25 µM in each case.

Consider `Fc1ccc(-c2nn3ccccc3c2-c2ccncc2)cc1`, for which the GI50 in [1] is > 25 µM; in experiment [2] it was > 20.2 µM; in experiment [3], > 25 µM; in experiment [4], > 25 µM; in experiment [5], > 25 µM; in experiment [6], > 25 µM. For the same molecule, the GI50 in [7] was > 25 µM; in experiment [8], 12.9 µM; in experiment [9], > 25 µM; in [10], > 22.8 µM. Besides, the TGI in [1], in [2], in experiment [3], in experiment [4], in experiment [5] and in experiment [6] was > 25 µM each time. Besides, the TGI in experiment [7], in experiment [8], in experiment [9] and in experiment [10] was > 25 µM each time.

For the molecule `C[N+](C)(C)c1cc[c]([Sn]([c]2ccc([N+](C)(C)C)cc2)([c]2ccc([N+](C)(C)C)cc2)[c]2ccc([N+](C)(C)C)cc2)cc1`, the GI50 in experiment [1], in [2], in experiment [3], in experiment [4], in experiment [5] and in [6] was > 100 µM each time. In addition, the GI50 in experiment [7], in experiment [8], in experiment [9] and in [10] was > 100 µM in each case. The TGI in [1], in experiment [2], in experiment [3], in experiment [4], in experiment [5] and in [6] was > 100 µM each time. In addition, the TGI in experiment [7], in experiment [8], in [9] and in experiment [10] was > 100 µM throughout.

Turning to `COc1ccc2c(O)c(/C=C3\N=Nc4ncccc43)oc2c1C[C@@H]1CCNC[C@H]1F`, the GI50 in experiment [1] is 0.294 µM; in experiment [2], 0.426 µM; in [3] it was 1.67 µM; in [4], 1.02 µM; in [6], 0.428 µM; in experiment [7] it was 2.22 µM. Also, the GI50 in [8] is 1.79 µM; in [9], 0.362 µM; in experiment [10], 0.869 µM. The TGI amounted to 1.39 µM in experiment [1]; 2.56 µM in experiment [2]; 4.09 µM in experiment [3]; 8.29 µM in experiment [4]; 0.193 µM in [5]; 1.99 µM in experiment [6]. Moreover, the TGI stood at 7.25 µM in [7], 8.11 µM in experiment [8], 1.59 µM in experiment [9] and 8.35 µM in experiment [10].

Take `CCOC(=O)c1[nH]c2cc(OC)c(OC)cc2c1CN(C)C`: the TGI in experiment [1], in experiment [2], in [3], in experiment [4], in [5] and in experiment [6] was > 100 µM each time. The TGI in experiment [7], in experiment [8], in experiment [9] and in [10] was > 100 µM throughout.

Regarding `C#C[C@@]1(O)[C@@H](CO)O[C@@H](n2cc(C(F)(F)F)c3c(N)ncnc32)[C@@H]1O`, the GI50 in [1] was 1.55 µM; in experiment [2], 1.62 µM; in experiment [3] it was 0.423 µM; in experiment [4], 1.59 µM; in experiment [5] it was 0.306 µM; in experiment [6], 0.86 µM. The GI50 in experiment [7] was 1.83 µM; in experiment [8], 0.103 µM; in experiment [9] it was 2.07 µM; in experiment [10], 0.688 µM. In addition, the TGI in [1] is > 22.9 µM; in [2], > 25.9 µM; in experiment [3], 4.24 µM; in experiment [4], 7.06 µM; in experiment [5], 1.7 µM; in experiment [6] it was 2.71 µM. For the same molecule, the TGI in experiment [7] was 10 µM; in experiment [8], > 100 µM; in [9], > 100 µM; in experiment [10], 4.38 µM.

For the molecule `CC1=C(C(=O)Nc2ccc(F)c(Cl)c2)C(c2cccc(Oc3ccccc3)c2)NC(=S)N1` (stereo unspecified), the GI50 in experiment [1] was 10.5 µM; in experiment [2] it was 14.8 µM; in experiment [3], 23.8 µM; in experiment [4], 19.2 µM; in [5] it was 14.3 µM; in experiment [6], 18.7 µM. In addition, the GI50 in experiment [7] was 8.89 µM; in experiment [8], 10.6 µM; in experiment [9], 10.8 µM; in experiment [10], 10.2 µM. Moreover, the TGI in experiment [1] was 24.2 µM; in experiment [2] it was 41.5 µM; in experiment [3], > 50 µM; in experiment [4], 34.8 µM; in experiment [5], > 50 µM; in experiment [6] it was 44 µM. Besides, the TGI in experiment [7] worked out at 25.9 µM; in [8] it was 37 µM; in experiment [9], 21.5 µM; in experiment [10], 19.6 µM.

Take `Cc1c2ccncc2c(C)c2c1sc1ccccc12`: the TGI in experiment [1] was found to be 64.3 µM; in experiment [2], 25.2 µM; in experiment [3] it was 25.9 µM; in experiment [4], 46.7 µM; in experiment [5], 8.98 µM; in experiment [6] it was 21.1 µM. Also, the TGI in experiment [7] came to 32.7 µM; in experiment [8] it was 21.6 µM; in experiment [9] it was 17.5 µM; in experiment [10], 23.1 µM.

For `CCCCNC(=S)OCCC(C)CCCC(C)C` (stereo unspecified), the TGI in experiment [1], in experiment [2], in experiment [3], in [4], in [5] and in [6] was > 100 µM each time. The TGI in experiment [7], in experiment [8], in experiment [9] and in experiment [10] was > 100 µM each time.

As to `COc1ccc(-c2cc(-c3ccc(Cl)cc3)nc(NCCCCNc3ccnc4cc(Cl)ccc34)n2)cc1`, the GI50 in experiment [1] was 2.39 µM; in experiment [2], 13.2 µM; in [3], 1.93 µM; in experiment [4], 15.4 µM; in experiment [5] it was 0.708 µM; in [6], 6.8 µM. Further, the GI50 is 1.76 µM in [7], 1.46 µM in [8], 1.62 µM in experiment [9] and 1.7 µM in experiment [10]. Also, the TGI is 6.31 µM in experiment [1]; 35.1 µM in experiment [2]; 3.71 µM in experiment [3]; 29.5 µM in experiment [4]; > 100 µM in [5]; 20.9 µM in experiment [6]. The TGI in [7] stood at 3.32 µM; in experiment [8], 3.12 µM; in experiment [9], 3.02 µM; in [10] it was 3.08 µM.

On to `COc1cc(-c2nc3ccccc3o2)cc(CN2CCCCC2)c1O`, for which the GI50 is 5.12 µM in experiment [1]; 12.3 µM in experiment [2]; 4.73 µM in [3]; 5.31 µM in experiment [4]; 5.24 µM in [5]; 2.93 µM in [6]. Moreover, the GI50 in experiment [7] was 1.97 µM; in experiment [8], 14 µM; in experiment [9] it was 20.3 µM; in experiment [10], 1.09 µM. In addition, the TGI in [1] was > 100 µM; in [2], > 100 µM; in [3], 22.4 µM; in experiment [4] it was 20.7 µM; in experiment [5], 71.9 µM; in experiment [6], 7.68 µM. Besides, the TGI is 4.12 µM in [7], > 100 µM in experiment [8], 89.8 µM in [9] and 2.3 µM in experiment [10].

With `CCN(CC)c1ccc(-c2cc(-c3cc(OC)c(OC)c(OC)c3)nc(N3CCC(O)CC3)c2C#N)cc1`, the GI50 was 0.988 µM in experiment [1]; 0.613 µM in [2]; 0.374 µM in experiment [3]; 0.469 µM in experiment [4]; 0.399 µM in [5]; 0.554 µM in experiment [6]. Further, the GI50 in experiment [7] was 0.879 µM; in experiment [8] it was 0.373 µM; in experiment [9] it was 0.337 µM; in experiment [10], 0.156 µM. In addition, the TGI in experiment [1] is 3.13 µM; in experiment [2] it was > 100 µM; in [3], 2.13 µM; in [4], > 21.8 µM; in experiment [5] it was 2.61 µM; in experiment [6] it was 2.47 µM. Further, the TGI in experiment [7] is 3.76 µM; in experiment [8], > 27.7 µM; in experiment [9] it was 20.3 µM; in experiment [10], 0.365 µM.

For `CC1C=CC(C(N)C(=O)O)O1` (stereo unspecified), the TGI in experiment [1], in experiment [2], in [3], in [4], in experiment [5] and in [6] was > 100 µM each time. The TGI in [7], in experiment [8], in [9] and in experiment [10] was > 100 µM throughout.

Take `Oc1[nH]c2ccccc2c1/C=c1/ccc2c(c1)N=C(c1ccc(C(F)(F)F)cc1)N=2`: the GI50 was 3.46 µM in [1]; 4.34 µM in experiment [2]; 3.77 µM in experiment [3]; 10.1 µM in experiment [4]; 1.7 µM in experiment [5]; 7.45 µM in [6]. The GI50 in experiment [7] was 3.11 µM; in [8], 3.01 µM; in experiment [9], 1.48 µM; in [10] it was 8.72 µM. Besides, the TGI in experiment [1] came to 11.9 µM; in experiment [2], 16.9 µM; in [3] it was 16.2 µM; in [4], 22 µM; in experiment [5] it was 4.54 µM; in experiment [6], 21.1 µM. Further, the TGI came out at 16.2 µM in experiment [7], 13.3 µM in [8], 3.56 µM in experiment [9] and 20.9 µM in [10].

`CCOC(=N)CC(=O)Nc1ccccc1`: the TGI was > 46.4 µM in [1]; > 100 µM in experiment [2]; > 31.6 µM in experiment [3]; > 100 µM in experiment [4]; > 69.1 µM in experiment [5]; > 46.4 µM in experiment [6]. The TGI in experiment [7], in [8], in experiment [9] and in experiment [10] was > 46.4 µM throughout.

Consider `COc1cc(/C=C(\NC(=O)c2ccccc2)c2nc3ncncc3[nH]2)cc(OC)c1OC`, for which the TGI in [1], in experiment [2], in experiment [3], in [4], in experiment [5] and in [6] was > 100 µM in each case. Besides, the TGI in experiment [7], in experiment [8], in experiment [9] and in experiment [10] was > 100 µM each time.

Regarding `O=C1NC2(CCCCC2)C(=O)N1CCN(CCCl)CCCl`, the GI50 in experiment [1] is > 25 µM and 112 µM; in [2], > 25 µM; in experiment [3] it was > 25 µM; in [4], > 25 µM; in [6], > 25 µM; in [7] it was > 25 µM. In addition, the GI50 is 17.7 µM in [8] and > 25 µM in experiment [10]. In addition, the TGI was > 250 µM in experiment [1]; > 250 µM in [2]; > 250 µM in [3]; > 250 µM in experiment [4]; 25 µM in [5]; > 250 µM in [6]. Besides, the TGI was > 114 µM in experiment [7], > 25 µM in experiment [9] and > 250 µM in [10].
